Legend:
[1] = target: T1, Proto-oncogene tyrosine-protein kinase Src (Homo sapiens, UniProt P12931); experiment: Binding affinity for Src SH2 domain
[2] = target: T1, Proto-oncogene tyrosine-protein kinase Src; experiment: Inhibition of binding to Src SH2 domain

T1 sequence (P12931 2-536 limits assumed): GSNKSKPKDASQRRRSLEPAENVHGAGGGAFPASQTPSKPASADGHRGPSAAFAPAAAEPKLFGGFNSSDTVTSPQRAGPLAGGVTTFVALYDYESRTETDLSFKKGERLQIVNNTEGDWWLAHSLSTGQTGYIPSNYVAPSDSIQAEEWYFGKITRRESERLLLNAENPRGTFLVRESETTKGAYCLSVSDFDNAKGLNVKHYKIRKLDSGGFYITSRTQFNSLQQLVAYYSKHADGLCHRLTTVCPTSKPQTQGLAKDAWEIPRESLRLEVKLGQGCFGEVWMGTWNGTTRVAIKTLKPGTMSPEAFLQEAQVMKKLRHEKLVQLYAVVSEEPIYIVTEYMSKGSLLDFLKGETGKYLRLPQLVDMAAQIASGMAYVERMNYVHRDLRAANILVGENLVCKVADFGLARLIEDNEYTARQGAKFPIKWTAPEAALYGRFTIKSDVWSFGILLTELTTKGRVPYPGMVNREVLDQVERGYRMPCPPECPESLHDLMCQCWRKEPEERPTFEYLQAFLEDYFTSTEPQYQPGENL

IC50 [2] [µM] | Compound | Kd [1] [nM]
 | CC[C@H](C)[C@H](NC(=O)[C@H](CCC(=O)O)NC(=O)[C@H](CCC(=O)O)NC(=O)[C@@H](N)Cc1ccc(OP(=O)(O)O)cc1)C(=O)O | 100
306 | CC[C@H](NC(=O)[C@H](Cc1ccc(OP(=O)(O)O)cc1)NC(C)=O)c1cccc(CC2CCCCC2)c1 | 
769 | CC(=O)N[C@@H](Cc1ccc(OP(=O)(O)O)cc1)C(=O)NCc1cccc(CC2CCCCC2)c1 | 

Source: ChEMBL document CHEMBL1131840, “Structure-based design and synthesis of a novel class of Src SH2 inhibitors” (Bioorg Med Chem Lett, 1999)
